Patent US20200385396A1, “Compond for treatment or prevention of obesity or diseases related to obesity, and application thereof” (SHANGHAI INSTITUTES FOR BIOLOGICAL SCIENCES, CHINESE …, priority 2017, published 2020)

Tests used:
normal mice = experiment: Body weight and daily food intake of normal mice under repeated dosing; type: in vivo, mouse; conditions: for body weight after treatment / daily food intake compared with the control group / reduction in total body weight / body weight before treatment: normal mice; for body weight before treatment: start
Experimental: Mice were intraperitoneally injected with DMSO or HLY72 (dissolved in DMSO) 25 μL within 2 hours before turning off the lamp. During the intragastric experiment, the high concentration of HLY72 dissolved in DMSO was dissolved in 10% cyclodextrin, and the total volume was 100 μL Volume by gavage, so that the final concentration of DMSO was less than 10%. The diet was weighed at the 3rd hour, the 6th hour, the 12th hour, and the 24th hour respectively after the lights out. The corresponding mouse body weight was also weighed at the same time before the daily administration. The fat content of mice was measured with the magnetic resonance fat content measuring instrument of the animal platform in SIBCB.
After screening better small-molecule compound and probably determining its key groups, whether HLY72 has a weight-loss effect has become the most wanted result immediately. For this problem, we directly used normal mice intraperitoneally injected with HLY72 for 5 consecutive days.
In order to further investigate whether the administration of HLY72 by oral gavage also has a weight-loss effect, and because of the convenience of oral administration, many drugs are taken orally. We have also considered one step more for future applications, so that the administration of oral gavage was used to see the effect of HLY72 on the body weight of normal mice. The same was 20 mg/kg HLY72 intragastric treatment for 5 days.
After confirming that HLY72 can indeed reduce the weight of mice, we examine two more questions: (1) Whether HLY72's weight-reducing effect is dose-dependent; (2) Whether HLY72-like molecule HLY103 not binding to NUCB2 has a weight-reducing effect. […] We also do the statistics on the daily food intake of the mice in these three days, which is consistent with the conclusion of the short-term statistics in the previous day.

normal-fed mice (Lean) = experiment: Metabolic cage, normal-fed mice (Lean); type: in vivo, mouse; conditions: for respiratory exchange rate / physical activity: 20 mg/kg
Experimental: Before starting the metabolic cage experiment, the mice were fed in a single cage for 1 week. After a one-week single cage adaptation period, three days before the start of the small molecule compound injection, the mice were injected with 25 μL of DMSO within 2 hours before turning off the lights every afternoon, allowing them to adapt to the injection for 3 days. After 3 days of injection, the acclimated mice were put into the metabolic cage. Starting from the same day, 25 μL of DMSO and HLY72 (20 mg/kg) were injected within 2 hours before turning off the lights for 3 consecutive days.
Next, the effect of HLY72 on the metabolism of mice is studied. We use two methods: (1) the relevant metabolic indexes of the mice are directly measured using the metabolic cage, and (2) the expression of the relevant key metabolic genes is detected. three metabolic parameters are obtained through the metabolic cage experiment: (1) Energy expenditure (EE), energy output is an important aspect of energy balance, under conditions such as restricted diet and fasting, mice will reduce basic metabolism, reduce energy expenditure; (2) respiratory exchange ratio (RER), based on the ratio calculated by CO2 produced and the use of 02, RER of 1 means that carbohydrates is mainly used as energy, RER of 0.7 means that fat is mainly used as fuel; (3) physical activity (Activity).

[1] = system: lipid metabolism related genes; experiment: Expression of lipid metabolism related genes in tissues (RT-PCR); type: in vivo, mouse; conditions: 20 mg/kg 3 consecutive days
Experimental: Mice fed with normal diet are injected with 20 mg/kg of HLY72 for 3 consecutive days, and the white adipose tissue (A) is taken to detect fat storage, fatty acid synthesis and decomposition-related gene expression. Liver (B) is taken to detect fatty acid transport and oxidative gene expression. Muscle (C) is taken to test the fatty acid transport and oxidative gene expression (14 mice per group).
After the mice were euthanized, the corresponding tissues were immediately peeled off and quickly frozen with liquid nitrogen and stored at −80° C. For the cell sample in the 6-well petri dish, after removing the culture medium, 1 mL of Trizol was added and placed at room temperature for 10 minutes, then transferred to a 1.5 mL EP tube and stored at −80° C. When extracting tissue RNA, 1.5 mL of Trizol was added to the tissue homogenization tube containing steel balls, the tissue was removed from the −80° C. refrigerator and put into the homogenization tube to homogenize and crush. RNA was extracted by phenol-chloroform-isopropanol method. Using the Superscript™III first strand synthesis system (Invitrogen) kit, 1 μg of mRNA was reverse transcribed into cDNA, and random primers were used for reverse transcription. Quantitative SYBR green PCR kit (Takara) kit was used for quantitative PCR reaction. The instrument for PCR reaction was ABI-QuantStudio 6 Realtime PCR instrument.
After injection of HLY72 in mice, the epididymal white adipose tissue, liver and muscle tissue were taken to detect the expression of lipid metabolism related genes. […] The expression of fatty acid transporter gene FAT (CD36), FATP2, FATP5 on the liver cell membrane is increased, the expression of the transporter gene CPT1A for fatty acid entering the mitochondria and the key enzyme gene ACADM of fatty acid β-oxidation are increased (FIG. 15b). At the same time, the expression of muscle cell membrane fatty acid transporter genes FATP1 and FATP4 are increased, and the expression of the transporter gene CPT1B for fatty acid entering the mitochondria and the key enzyme gene ACADM of fatty acid β-oxidation are increased (FIG. 15c). Changes in gene expression in these tissues indicate that liver and muscle tissues have increased the use of fatty acids.

[2] = system: NUCB2 gene knockout heterozygous mice; experiment: Effect on NUCB2 gene knockout heterozygous mice; type: in vivo, mouse
Excerpt: Heterozygous mice prepared by the CRISPR-Cas9 system were purchased from Xiamen University. […] Heterozygous mice deleted 83 bases in E3 and confirmed by sequencing (FIG. 17c). In order to facilitate the experiment, for mice with 83 bases deleted, we designed primers to detect by PCR (FIG. 17b). Because of the failure to obtain NUCB2 knockout homozygous mice for multiple matches, only heterozygous mice can be used for research.

Water solubility = type: physicochemical
[3] = intraperitoneal 20 mg/kg, 5 consecutive days

## C=Cc1cccc2c1N(C)Cc1cc3c(cc1-2)OCO3 [HLY72]
Normal mice; intraperitoneal, 3 consecutive days, HLY72 10 and 20 mg/kg, HLY103 20 mg/kg
  effect on body weight / weight loss: concentration gradient
Normal mice; [3]
  body weight after treatment: 23.37 ± 0.36 g
  daily food intake compared with the control group: significantly reduced
  reduction in total body weight: 9.21%±0.74%
Normal mice; intraperitoneal 20 mg/kg
  body weight before treatment: 25.73 ± 0.29 g
Normal mice; oral gavage 20 mg/kg, 5 days
  body weight after treatment: 23.14 ± 0.45 g
  daily food intake compared with the control group: decreased significantly
  reduction in total body weight: 8.43%±0.81%
Normal mice; oral gavage 20 mg/kg
  body weight before treatment: 25.26 ± 0.37 g
normal-fed mice (Lean); 20 mg/kg once a day, night (dark) and day (light)
  energy expenditure: significantly reduces
normal-fed mice (Lean); at night
  respiratory exchange rate: significantly reduced
normal-fed mice (Lean); daytime
  physical activity: does not affect
normal-fed mice (Lean); during the day
  respiratory exchange rate: no change
normal-fed mice (Lean); night
  physical activity: decreased
[1]; liver
  expression of ACADM: increased
  expression of CPT1A: increased
  expression of FAT (CD36): increased
  expression of FATP2: increased
  expression of FATP5: increased
[1]; muscle
  expression of ACADM: increased
  expression of CPT1B: increased
  expression of FATP1: increased
  expression of FATP4: increased
[1]; white adipose tissue
  expression of ATGL (lipolytic gene): increase
  expression of DGAT (fat storage gene): significantly reduced
  expression of FAS (fatty acid synthesis gene): significantly down-regulated
  expression of SCD1 (fatty acid synthesis gene): significantly down-regulated
[2]
  effect on daily food intake in heterozygous mice: reduced
  effect on mouse weight in heterozygous mice: reduced
Water solubility
  water solubility: very poor
